According to ChEMBL document CHEMBL1201862, “PubChem BioAssay data set” (2004):
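Where inhibition never reached the appropriate level, the endpoint shown equals the highest concentration tested. Otherwise, values were interpolated linearly from a five-concentration, 48-hour dose response in 96-well plates. GI50 is the concentration that inhibits growth by half.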 The source made the active and inactive calls. No stated cut-off is given here; in the data, active = GI50 up to about 1.1 µM and inactive = higher.

Columns and labels:
Experiment in all cases: NCI tumour cell line growth inhibition, 48 h
[1] = test system: M14
[2] = test system: Malme-3M
[3] = test system: RXF 393
[4] = test system: A549
[5] = test system: ACHN
[6] = test system: SF-268
[7] = test system: SNB-75
[8] = test system: MDA-MB-435
[9] = test system: EKVX
[10] = test system: HCT-116
[11] = test system: NCI/ADR-RES
[12] = test system: IGROV-1
[13] = test system: 786-0
[14] = test system: SNB-19
[15] = test system: OVCAR-5
[16] = test system: A498
[17] = test system: SW-620
[18] = test system: MOLT-4
[19] = test system: HCT-15
[20] = test system: OVCAR-8
[21] = test system: BT-549
[22] = test system: LOX IMVI
[23] = test system: OVCAR-4
[24] = test system: CCRF-CEM
[25] = test system: SK-MEL-28
[26] = test system: PC-3
[27] = test system: Hs-578T
[28] = test system: HL-60
[29] = test system: UACC-257
[30] = test system: COLO 205
[31] = test system: HOP-92
[32] = test system: NCI-H226
[33] = test system: UACC-62
[34] = test system: U-251
[35] = test system: SK-MEL-5
[36] = test system: T47D
[37] = test system: RPMI-8226
[38] = test system: SF-539
[39] = test system: MDA-MB-231
[40] = test system: UO-31
[41] = test system: SF-295
[42] = test system: KM12
[43] = test system: TK-10
[44] = test system: SK-MEL-2
[45] = test system: NCI-H23
[46] = test system: MCF7
[47] = test system: OVCAR-3
[48] = test system: NCI-H460
[49] = test system: MDA-N
[50] = test system: SK-OV-3
[51] = test system: HT-29
[52] = test system: K562
[53] = test system: SN12C
[54] = test system: DU-145
[55] = test system: HOP-62
[56] = test system: CAKI-1
[57] = test system: NCI-H522
[58] = test system: SR

Structure (SMILES): O=C(CN1c2ccccc2Sc2ccccc21)n1cnc2ccccc21
- GI50 [1]: 59.2 µM (inactive)
- GI50 [2]: 74.8 µM (inactive)
- GI50 [3]: > 100 µM (inactive)
- GI50 [4]: > 100 µM (inactive)
- GI50 [5]: > 100 µM (inactive)
- GI50 [6]: > 100 µM (inactive)
- GI50 [7]: > 100 µM (inactive)
- GI50 [8]: > 100 µM (inactive)
- GI50 [9]: > 100 µM (inactive)
- GI50 [10]: > 100 µM (inactive)
- GI50 [11]: 97.5 µM (inactive)
- GI50 [12]: > 100 µM (inactive)
- GI50 [13]: 52.6 µM (inactive)
- GI50 [14]: > 100 µM (inactive)
- GI50 [15]: 80 µM (inactive)
- GI50 [16]: 45.3 µM (inactive)
- GI50 [17]: > 100 µM (inactive)
- GI50 [18]: 51.4 µM (inactive)
- GI50 [19]: 99.8 µM
- GI50 [20]: 72.6 µM (inactive)
- GI50 [21]: > 100 µM (inactive)
- GI50 [22]: 95.3 µM (inactive)
- GI50 [23]: 69 µM (inactive)
- GI50 [24]: 73.1 µM (inactive)
- GI50 [25]: > 100 µM (inactive)
- GI50 [26]: 70.6 µM (inactive)
- GI50 [27]: > 100 µM (inactive)
- GI50 [28]: 89.3 µM (inactive)
- GI50 [29]: > 100 µM (inactive)
- GI50 [30]: 92.3 µM (inactive)
- GI50 [31]: 30.6 µM (inactive)
- GI50 [32]: 45 µM (inactive)
- GI50 [33]: > 100 µM (inactive)
- GI50 [34]: 43.5 µM (inactive)
- GI50 [35]: 56.9 µM (inactive)
- GI50 [36]: 49.8 µM (inactive)
- GI50 [37]: 90.4 µM (inactive)
- GI50 [38]: > 100 µM (inactive)
- GI50 [39]: 53.2 µM (inactive)
- GI50 [40]: 75.9 µM (inactive)
- GI50 [41]: > 100 µM (inactive)
- GI50 [42]: 59.8 µM (inactive)
- GI50 [43]: > 100 µM (inactive)
- GI50 [44]: > 100 µM (inactive)
- GI50 [45]: 77.3 µM (inactive)
- GI50 [46]: > 100 µM (inactive)
- GI50 [47]: 62.8 µM (inactive)
- GI50 [48]: 97.5 µM (inactive)
- GI50 [49]: > 100 µM (inactive)
- GI50 [50]: 47.1 µM (inactive)
- GI50 [51]: 73.6 µM (inactive)
- GI50 [52]: 99.5 µM (inactive)
- GI50 [53]: > 100 µM (inactive)
- GI50 [54]: > 100 µM (inactive)
- GI50 [55]: > 100 µM (inactive)

Structure (SMILES): CCC1OC2(C)CC(C#N)(C#N)C1(C#N)C(=N)O2 (stereo not drawn)
- GI50 [1]: > 100 µM (inactive)
- GI50 [2]: > 100 µM (inactive)
- GI50 [3]: > 100 µM (inactive)
- GI50 [4]: > 100 µM (inactive)
- GI50 [5]: > 100 µM (inactive)
- GI50 [6]: > 100 µM (inactive)
- GI50 [7]: > 100 µM (inactive)
- GI50 [8]: > 100 µM (inactive)
- GI50 [9]: > 100 µM (inactive)
- GI50 [10]: > 100 µM (inactive)
- GI50 [12]: > 100 µM (inactive)
- GI50 [13]: > 100 µM (inactive)
- GI50 [14]: > 100 µM (inactive)
- GI50 [15]: > 100 µM (inactive)
- GI50 [16]: > 100 µM (inactive)
- GI50 [17]: > 100 µM (inactive)
- GI50 [18]: > 100 µM (inactive)
- GI50 [21]: > 100 µM (inactive)
- GI50 [22]: > 100 µM (inactive)
- GI50 [24]: > 100 µM (inactive)
- GI50 [25]: > 100 µM (inactive)
- GI50 [26]: > 100 µM (inactive)
- GI50 [27]: > 100 µM (inactive)
- GI50 [28]: > 100 µM (inactive)
- GI50 [56]: > 100 µM (inactive)
- GI50 [29]: > 100 µM (inactive)
- GI50 [30]: > 100 µM (inactive)
- GI50 [31]: > 100 µM (inactive)
- GI50 [33]: > 100 µM (inactive)
- GI50 [34]: > 100 µM (inactive)
- GI50 [35]: > 100 µM (inactive)
- GI50 [36]: > 100 µM (inactive)
- GI50 [38]: > 100 µM (inactive)
- GI50 [39]: > 100 µM (inactive)
- GI50 [40]: > 100 µM (inactive)
- GI50 [41]: > 100 µM (inactive)
- GI50 [42]: > 100 µM (inactive)
- GI50 [43]: > 100 µM (inactive)
- GI50 [44]: > 100 µM (inactive)
- GI50 [45]: > 100 µM (inactive)
- GI50 [46]: > 100 µM (inactive)
- GI50 [47]: > 100 µM (inactive)
- GI50 [49]: > 100 µM (inactive)
- GI50 [50]: > 100 µM (inactive)
- GI50 [52]: > 100 µM (inactive)
- GI50 [53]: > 100 µM (inactive)
- GI50 [54]: > 100 µM (inactive)

Structure (SMILES): O=C(O)C1NCCc2c1[nH]c1ccccc21 (stereo not drawn)
- GI50 [3]: > 10 µM (inactive)
- GI50 [8]: > 10 µM (inactive)
- GI50 [11]: > 10 µM (inactive)
- GI50 [21]: > 10 µM (inactive)
- GI50 [26]: > 10 µM (inactive)
- GI50 [27]: > 10 µM (inactive)
- GI50 [36]: > 10 µM (inactive)
- GI50 [37]: > 10 µM (inactive)
- GI50 [39]: > 10 µM (inactive)
- GI50 [46]: > 10 µM (inactive)
- GI50 [49]: > 10 µM (inactive)
- GI50 [54]: > 10 µM (inactive)
- GI50 [55]: > 10 µM (inactive)

Structure (SMILES): COc1ccc(C2N(c3ccc(F)cc3)C(=O)N3C(c4ccc(OC)cc4)N(c4ccc(F)cc4)C(=O)N23)cc1 (stereo not drawn)
- GI50 [1]: > 100 µM (inactive)
- GI50 [2]: > 100 µM (inactive)
- GI50 [3]: > 100 µM (inactive)
- GI50 [4]: > 100 µM (inactive)
- GI50 [5]: > 100 µM (inactive)
- GI50 [6]: > 100 µM (inactive)
- GI50 [7]: > 100 µM (inactive)
- GI50 [8]: > 100 µM (inactive)
- GI50 [9]: > 100 µM (inactive)
- GI50 [10]: > 100 µM (inactive)
- GI50 [11]: > 100 µM (inactive)
- GI50 [12]: > 100 µM (inactive)
- GI50 [13]: > 100 µM (inactive)
- GI50 [14]: > 100 µM (inactive)
- GI50 [15]: > 100 µM (inactive)
- GI50 [16]: > 100 µM (inactive)
- GI50 [17]: > 100 µM (inactive)
- GI50 [19]: > 100 µM
- GI50 [20]: > 100 µM (inactive)
- GI50 [57]: > 100 µM (inactive)
- GI50 [21]: > 100 µM (inactive)
- GI50 [22]: > 100 µM (inactive)
- GI50 [23]: > 100 µM (inactive)
- GI50 [24]: > 100 µM (inactive)
- GI50 [25]: > 100 µM (inactive)
- GI50 [26]: > 100 µM (inactive)
- GI50 [27]: > 100 µM (inactive)
- GI50 [58]: 34 µM (inactive)
- GI50 [28]: > 100 µM (inactive)
- GI50 [56]: > 100 µM (inactive)
- GI50 [29]: > 100 µM (inactive)
- GI50 [30]: > 100 µM (inactive)
- GI50 [31]: > 100 µM (inactive)
- GI50 [33]: > 100 µM (inactive)
- GI50 [34]: > 100 µM (inactive)
- GI50 [35]: > 100 µM (inactive)
- GI50 [36]: > 100 µM (inactive)
- GI50 [37]: > 100 µM (inactive)
- GI50 [38]: > 100 µM (inactive)
- GI50 [39]: > 100 µM (inactive)
- GI50 [40]: > 100 µM (inactive)
- GI50 [41]: > 100 µM (inactive)
- GI50 [42]: > 100 µM (inactive)
- GI50 [43]: > 100 µM (inactive)
- GI50 [44]: > 100 µM (inactive)
- GI50 [45]: > 100 µM (inactive)
- GI50 [47]: > 100 µM (inactive)
- GI50 [48]: > 100 µM (inactive)
- GI50 [49]: > 100 µM (inactive)
- GI50 [51]: > 100 µM (inactive)
- GI50 [53]: > 100 µM (inactive)
- GI50 [54]: > 100 µM (inactive)
- GI50 [55]: > 100 µM (inactive)
